Numbering of substitutions follows the chain as printed. Entries after “also recorded” stand apart in the source; their conditions may differ. Where a SMILES comes first, the peptide text is derived from it. The star is where a group is joined. Palmitoyl = CCCCCCCCCCCCCCCC(=O)*
Legend:
MC4R = target: T1, MC4R (Homo sapiens, UniProt P32245); test: Adenylate cyclase activity in COS7 fibroblasts transfected with MC4R; assay type: cell-based
T1 construct: expressed in transfected cells; host or cells: COS7, transient
T1 sequence (P32245 whole entry): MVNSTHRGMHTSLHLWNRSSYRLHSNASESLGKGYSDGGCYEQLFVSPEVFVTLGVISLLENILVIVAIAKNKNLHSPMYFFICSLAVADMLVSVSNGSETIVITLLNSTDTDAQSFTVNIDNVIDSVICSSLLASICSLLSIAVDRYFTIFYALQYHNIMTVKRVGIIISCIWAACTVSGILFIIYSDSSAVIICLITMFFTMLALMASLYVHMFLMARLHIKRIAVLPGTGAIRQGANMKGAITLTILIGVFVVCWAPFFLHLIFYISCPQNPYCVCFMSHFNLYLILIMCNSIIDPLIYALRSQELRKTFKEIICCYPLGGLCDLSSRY

substance P (Sub-P) = target: T2, substance P (Sub-P) (Homo sapiens, UniProt P25103); test: InsP formation in COS7 cells expressing substance P receptor; assay type: cell-based
T2 construct: expressed in transfected cells; host or cells: COS7, transient
T2 sequence (P25103 whole entry): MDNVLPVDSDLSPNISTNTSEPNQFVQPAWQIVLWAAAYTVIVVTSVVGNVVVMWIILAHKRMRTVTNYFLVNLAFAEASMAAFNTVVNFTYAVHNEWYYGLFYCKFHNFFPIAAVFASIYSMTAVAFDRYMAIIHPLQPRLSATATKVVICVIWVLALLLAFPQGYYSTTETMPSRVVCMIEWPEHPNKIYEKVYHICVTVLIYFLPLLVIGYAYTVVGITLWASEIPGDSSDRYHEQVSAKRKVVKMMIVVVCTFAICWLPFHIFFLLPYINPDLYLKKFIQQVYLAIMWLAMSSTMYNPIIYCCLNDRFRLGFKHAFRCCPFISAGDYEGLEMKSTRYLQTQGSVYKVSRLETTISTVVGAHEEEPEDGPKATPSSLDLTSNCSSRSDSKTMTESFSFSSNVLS

[1] = target: T3, somatostatin receptor (SSTR2) (Rattus norvegicus, UniProt P30680); test: InsP formation in COS7 cells expressing SSTR2; assay type: cell-based; details: COS7 cells
T3 construct: expressed in transfected cells; host or cells: COS7, transient
T3 sequence (P30680 whole entry): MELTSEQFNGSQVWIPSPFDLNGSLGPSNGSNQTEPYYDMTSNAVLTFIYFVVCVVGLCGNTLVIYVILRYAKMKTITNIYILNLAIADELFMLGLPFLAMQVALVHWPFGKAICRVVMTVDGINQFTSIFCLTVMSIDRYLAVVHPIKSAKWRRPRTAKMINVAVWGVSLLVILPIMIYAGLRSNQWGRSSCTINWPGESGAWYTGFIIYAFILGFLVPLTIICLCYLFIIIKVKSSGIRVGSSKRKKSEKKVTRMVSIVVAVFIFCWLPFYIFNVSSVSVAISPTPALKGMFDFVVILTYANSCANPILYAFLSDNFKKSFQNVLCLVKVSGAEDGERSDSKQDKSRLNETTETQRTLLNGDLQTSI

[2] = system: untransfected Rat1 cells / COS7 cells without PAR1; test: InsP formation in COS7 cells or Rat1 fibroblasts in the absence of the PAR1 receptor; assay type: cell-based; details: for InsP stimulation in the absence of the PAR1 receptor: COS7 cells or Rat1 fibroblasts
cholecystokinin A (CCKA) = target: T4, cholecystokinin A (CCKA) (Homo sapiens, UniProt P32238); test: InsP formation in COS7 cells expressing CCKA; assay type: cell-based
T4 construct: expressed in transfected cells; host or cells: COS7, transient
T4 sequence (P32238 1-428): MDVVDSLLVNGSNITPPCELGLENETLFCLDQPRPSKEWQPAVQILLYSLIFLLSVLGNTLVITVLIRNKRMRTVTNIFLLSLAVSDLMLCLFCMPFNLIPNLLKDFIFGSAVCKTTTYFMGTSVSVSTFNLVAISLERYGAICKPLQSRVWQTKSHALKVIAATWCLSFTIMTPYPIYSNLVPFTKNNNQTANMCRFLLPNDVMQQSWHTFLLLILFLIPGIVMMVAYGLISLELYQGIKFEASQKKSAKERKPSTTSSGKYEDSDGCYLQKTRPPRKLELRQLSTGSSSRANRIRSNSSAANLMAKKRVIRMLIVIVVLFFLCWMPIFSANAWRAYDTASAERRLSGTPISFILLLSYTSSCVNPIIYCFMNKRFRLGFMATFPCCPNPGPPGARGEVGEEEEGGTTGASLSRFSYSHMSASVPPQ

PAR2 = target: T5, PAR2 (Homo sapiens, UniProt P55085); test: InsP formation in COS7 cells expressing PAR2; assay type: cell-based; details: 0.1-10 micromolar pepducin
T5 construct: expressed in transfected cells; host or cells: COS7 (transient)
T5 sequence (P55085 26-397): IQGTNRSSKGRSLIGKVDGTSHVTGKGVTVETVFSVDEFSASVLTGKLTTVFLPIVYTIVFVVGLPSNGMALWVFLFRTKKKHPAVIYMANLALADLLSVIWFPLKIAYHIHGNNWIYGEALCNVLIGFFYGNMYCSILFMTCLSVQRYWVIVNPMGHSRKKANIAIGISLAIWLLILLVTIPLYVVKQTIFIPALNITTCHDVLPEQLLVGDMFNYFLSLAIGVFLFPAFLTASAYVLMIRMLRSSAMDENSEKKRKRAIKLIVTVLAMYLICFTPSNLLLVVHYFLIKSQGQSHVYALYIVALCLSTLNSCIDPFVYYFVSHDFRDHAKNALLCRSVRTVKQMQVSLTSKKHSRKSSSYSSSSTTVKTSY

cholecystokinin B (CCKB) = target: T6, cholecystokinin B (CCKB) (Homo sapiens, UniProt P32239); test: InsP formation in COS7 cells expressing CCKB; assay type: cell-based
T6 construct: expressed in transfected cells; host or cells: COS7, transient
T6 sequence (P32239 1-447): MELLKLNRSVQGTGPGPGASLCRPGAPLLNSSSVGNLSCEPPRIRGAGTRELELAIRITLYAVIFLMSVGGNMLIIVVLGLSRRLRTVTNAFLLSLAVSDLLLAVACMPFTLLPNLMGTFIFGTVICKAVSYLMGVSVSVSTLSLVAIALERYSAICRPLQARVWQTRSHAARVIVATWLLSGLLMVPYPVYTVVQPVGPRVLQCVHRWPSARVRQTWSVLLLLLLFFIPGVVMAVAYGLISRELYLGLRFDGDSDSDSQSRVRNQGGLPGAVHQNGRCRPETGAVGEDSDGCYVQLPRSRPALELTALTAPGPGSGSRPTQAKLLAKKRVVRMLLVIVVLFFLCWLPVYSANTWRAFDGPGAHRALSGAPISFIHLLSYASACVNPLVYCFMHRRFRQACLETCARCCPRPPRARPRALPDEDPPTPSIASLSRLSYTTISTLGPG

PAR4 = target: T7, PAR4 (Homo sapiens, UniProt Q96RI0); test: InsP formation in COS7 cells expressing PAR4; assay type: cell-based; design: expressed in transfected cells; host or cells: COS7, transient; details: COS7 cells
T7 sequence (Q96RI0 18-385): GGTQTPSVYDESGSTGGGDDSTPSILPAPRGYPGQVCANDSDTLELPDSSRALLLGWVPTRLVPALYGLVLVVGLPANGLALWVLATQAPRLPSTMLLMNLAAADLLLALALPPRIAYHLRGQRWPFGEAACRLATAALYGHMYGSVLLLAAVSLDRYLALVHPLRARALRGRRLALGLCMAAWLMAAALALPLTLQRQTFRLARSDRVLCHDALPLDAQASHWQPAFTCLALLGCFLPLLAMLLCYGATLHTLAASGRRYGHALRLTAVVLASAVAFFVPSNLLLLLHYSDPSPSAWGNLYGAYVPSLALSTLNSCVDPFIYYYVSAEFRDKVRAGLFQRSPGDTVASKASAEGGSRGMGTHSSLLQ

PAR1 [3] = target: T8, PAR1 (Homo sapiens, UniProt P25116); test: InsP formation (PLC-β) in Rat1 fibroblasts expressing human PAR1; assay type: cell-based
T8 construct: expressed in transfected cells
T8 sequence (P25116 22-425): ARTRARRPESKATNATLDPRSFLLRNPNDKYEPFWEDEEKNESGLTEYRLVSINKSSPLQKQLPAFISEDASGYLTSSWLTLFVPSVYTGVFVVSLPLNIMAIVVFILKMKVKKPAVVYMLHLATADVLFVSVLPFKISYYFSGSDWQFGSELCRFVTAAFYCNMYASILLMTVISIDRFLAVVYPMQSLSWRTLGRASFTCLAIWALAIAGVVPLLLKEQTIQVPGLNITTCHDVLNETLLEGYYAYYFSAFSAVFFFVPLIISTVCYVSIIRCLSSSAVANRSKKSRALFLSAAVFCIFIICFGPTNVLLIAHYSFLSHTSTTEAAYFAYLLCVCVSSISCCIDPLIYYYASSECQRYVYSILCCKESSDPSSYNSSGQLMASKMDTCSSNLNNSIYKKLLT

platelets = test: Platelet intracellular Ca2+, agonist activity of peptides
delta377 PAR1 = test: InsP formation in COS7 cells expressing delta377 (C-tail deleted) PAR1 mutant; assay type: cell-based, human
S309P PAR1 = target: T9, S309P PAR1 (Homo sapiens, UniProt P25116, S309P); test: InsP formation in COS7 cells expressing S309P PAR1 mutant; assay type: cell-based; details: relative to wild type PAR1
T9 construct: expressed in transfected cells; host or cells: COS7, transient
T9 sequence (P25116 22-425 S309P): T8 sequence (P25116 22-425) with S288P

PAR1 [4] = target: T8, PAR1; test: Inhibition of PAR1-dependent platelet Ca2+ signal; assay type: cell-based; details: SFLLRN (or thrombin) after peptide pre-treatment
Protocol: Platelet Ca2+ measurements were performed as in Example 1.
The integrated Ca^2+ response for the individual treatments are relative to the full Ca^2+ responses for each agonist (100%) recorded in the absence of P4pal-10 (top trace).

[5] = system: thrombin receptors on human platelets; test: Inhibition of thrombin-induced human platelet aggregation; details: 3 nM thrombin; LBS1-PE at 25 micromolar

CCCCCCCCCCCCCCCC(=O)N[C@H](C(=O)NCC(=O)N[C@@H](C)C(=O)N[C@H](C(=O)N[C@@H](CCCNC(=N)N)C(=O)N[C@@H](CCC(N)=O)C(=O)NCC(=O)N[C@@H](C)C(=O)N[C@@H](CC(N)=O)C(=O)N[C@@H](CCSC)C(=O)N[C@@H](CCCCN)C(=O)NCC(=O)N[C@@H](C)C(=O)N[C@H](C(N)=O)[C@@H](C)CC)[C@@H](C)CC)[C@@H](C)O [MC4pal-14] (Palmitoyl-TGAIRQGANMKGAI-NH2)
IC50 (MC4R; read-out: IC50, inhibitory phase): ~10 µM
stimulation of adenylate cyclase activity (efficacy) (MC4R; relative to alpha-MSH): 40%

CCCCCCCCCCCCCCCC(=O)N[C@@H](C)C(=O)N[C@H](C(=O)N[C@@H](C)C(=O)N[C@@H](CC(N)=O)C(=O)N[C@@H](CCCNC(=N)N)C(=O)N[C@@H](CO)C(=O)N[C@@H](CCCCN)C(=O)N[C@@H](CCCCN)C(=O)N[C@@H](CO)C(=O)N[C@@H](CCCNC(=N)N)C(=O)N[C@@H](C)C(=O)N[C@@H](CC(C)C)C(=O)N[C@@H](Cc1ccccc1)C(N)=O)C(C)C [Pepducin P1pal-13] (Palmitoyl-AVANRSKKSRALF-NH2)
activation of Sub-P receptor (InsP) (substance P (Sub-P)): did not activate
activation of SSTR2 (InsP) [1]: did not activate
InsP stimulation in the absence of the PAR1 receptor [2]: approximately 11%
activation of CCKA (InsP) (cholecystokinin A (CCKA)): did not activate
activation of PAR2 (InsP) (PAR2): did not activate
activation of CCKB (InsP) (cholecystokinin B (CCKB); COS7 cells): did not activate
activation of PAR4 (InsP) (PAR4): did not activate
Agonist Efficacy (PAR1 [3]): 60 − 88%

CCCCCCCCCCCCCCCC(=O)N[C@@H](CCCNC(=N)N)C(=O)N[C@@H](CS)C(=O)N[C@@H](CC(C)C)C(=O)N[C@@H](CO)C(=O)N[C@@H](CO)C(=O)N[C@@H](CO)C(=O)N[C@@H](C)C(=O)N[C@H](C(=O)N[C@@H](C)C(=O)N[C@@H](CC(N)=O)C(=O)N[C@@H](CCCNC(=N)N)C(=O)N[C@@H](CO)C(=O)N[C@@H](CCCCN)C(=O)N[C@@H](CCCCN)C(=O)N[C@@H](CO)C(=O)N[C@@H](CCCNC(=N)N)C(=O)N[C@@H](C)C(=O)N[C@@H](CC(C)C)C(=O)N[C@@H](Cc1ccccc1)C(N)=O)C(C)C [Pepducin P1pal-19] (Palmitoyl-RCLSSSAVANRSKKSRALF-NH2)
agonist activity, platelet intracellular Ca2+ (platelets): causes a rapid Ca^2+i transient
stimulation of PLC-beta with delta377 PAR1 mutant (delta377 PAR1): effectively no stimulation of PLC-beta
activation of Sub-P receptor (InsP) (substance P (Sub-P)): does not activate
activation of SSTR2 (InsP) [1]: does not activate
InsP stimulation in the absence of the PAR1 receptor [2]: approximately 11%
stimulation of untransfected Rat1 cells (Rat1 alone) ([2]; attributed to endogenous rat PAR1): minor stimulation
activation of CCKA (InsP) (cholecystokinin A (CCKA)): does not activate
loss of efficacy on S309P mutant (S309P PAR1): 4.3 fold
loss of potency on S309P mutant (S309P PAR1): 13 fold
activation of PAR2 (InsP) (PAR2): robustly activate PAR2; also recorded: can fully activate
stimulation of CCKB, % of its maximal activity (cholecystokinin B (CCKB); maximum defined by 300 nM CCK-8): about 30%
activation of PAR4 (InsP) (PAR4): does not activate
agonist activity in platelet aggregation (human platelets): fully activates platelet aggregation
EC50 (human platelets; read-out: EC50 of activation of platelet aggregation): 8 ± 3 µM
Agonist Efficacy (PAR1 [3]): 90 ± 2%
inhibition of PAR1-dependent Ca2+ response (PAR1 [4]): completely inhibits the subsequent Ca^2+i response

PAFISEDASGYL-C (PAFISEDASGYLC) [LBS1]
inhibition of aggregation [5]: did not inhibit
inhibition of PAR1-dependent Ca2+ response (PAR1 [4]): relatively poor antagonist
inhibition of PAR1-dependent Ca2+ response (PAR1 [4]; listed as LBS-1): poor antagonist

SFLLRN
shift of potency on delta377 mutant (delta377 PAR1; relative to wild type PAR1): ~30 fold
loss of efficacy on S309P mutant (S309P PAR1): 3.3 fold
loss of potency on S309P mutant (S309P PAR1): 28 fold
